One block for each molecule: values may come before it.
How the values were obtained:
[1] = test system: Normal White Albino New Zealand Rabbits; assay: Reduction of intraocular pressure (IOP), pneuma-tonometer; assay type: in vivo
Procedure: Two groups of normal albino white New Zealand rabbits were used for this study. Control group: 4 animals Experimental group: 8 animals At time 0, intraocular pressure of both eyes of each animal in control and experimental groups was determined. All animals received the treatment either with saline (control group) or the tested compound (experimental group) immediately after 0 hour intraocular pressure reading. Control group received 50 µl of vehicle in both eyes . Experimental animals received 50 µl of vehicle in the left eyes and 50 µl of the test solution in the right eyes. Intraocular pressure was measured at 30 minutes, 1, 2, and 4 hours. The effects of tested drug on intraocular pressure of the rabbit was determined using a Digilab Model 30D pneuma-tonometer. Initial IOP readings were obtained in all animals after the administration of 50 ul of 0.5% Opthaine (proparacaine hydrochloride). A group of 4 rabbits served as controls and were treated with 50 µl of saline in both eyes. Eight additional rabbits received 50 ul of test drug in the right eye, and 50 µl of drug vehicle was administered in the contralateral left eye. IOP readings were made 30 minutes, 1 hours, 2 hours, and 4 hours after drug administration. […] This procedure permitted the comparison of drug treated eye with the contralateral vehicle treated eye, and also with saline treated eye. For purposes of statistical analysis comparisons were made between the drug treated IOP values and vehicle treated-contralateral eyes and also the saline treated IOP values.

[2] = test system: Normal White Albino New Zealand Rabbits; assay: as above; settings: rabbit, in vivo
[3] = test system: rabbits; assay: Toxicity by topical ocular application in rabbits; assay type: in vivo; settings: up to 0.2 mg/ml, 0.1 ml/eye, from 12 times in 6 hours to up to 6 times/day for a week
Procedure: Studies were conducted by topical ocular application in rabbits with concentrations up to 0.2 mg/ml of methyl 9-oxo-lla-methyl-15a-hydroxy-16-phenoxy-17,18,19,20-tetranorprosta-4,5,13(E)-trienoate. The dose volume was 0.1 ml/eye. Duration of administration varied from 12 times in 6 hours to up to 6 times/day for a week.

[4] = test system: Monkeys; assay: Toxicity by topical ocular application in monkeys; assay type: in vivo; settings: same concentrations and dosages, once a day for one week
Procedure: Monkeys were treated similarly with the same concentrations and dosages of methyl 9-oxo-lla- methyl-15a-hydroxy-16-phenoxy-17,18,19,20-tetranorprosta-4,5,13(E)-trienoate once a day for one week.

- transient increase in intraocular pressure at the time of administration ([1]; when first administered): transitory rise in intraocular pressure
Structure (SMILES): CCCCC[C@H](O)/C=C/[C@H]1[C@H](O)CC(=O)[C@@H]1C/C=C\CCCC(=O)O [PGE2]
- Intraocular pressure ([1]; PGE2 0.025%, 0 hr (reading before treatment)): 21.00 ± .85 mmHg
- Intraocular pressure ([1]; PGE2 0.025%, 1/2 hr): 47.63 ± 1.28 mmHg
- Intraocular pressure ([1]; PGE2 0.025%, 2.5 hr): 18.38 ± .82 mmHg
- Intraocular pressure ([1]; PGE2 0.025%, 4 hr): 16.00 ± .73 mmHg
- Intraocular pressure ([1]; PGE2 0.025%, 5 hr): 16.63 ± .38 mmHg
- eye irritation ([1]; observed on administration, for PGE1 and PGE2 even at low doses): severe eye irritation

- transient increase in intraocular pressure at the time of administration ([1]; rabbit, in vivo): transitory rise in intraocular pressure
Structure (SMILES): CCCCC[C@H](O)/C=C/[C@H]1[C@H](O)CC(=O)[C@@H]1CCCCCCC(=O)O [PGE1]
- eye irritation [2]: severe eye irritation
- Intraocular pressure ([1]; PGE1 0.01%, 0 hr (reading before treatment)): 20.67 ± 1.09 mmHg
- Intraocular pressure ([1]; PGE1 0.01%, 1/2 hr): 38.17 ± 1.28 mmHg
- Intraocular pressure ([1]; PGE1 0.01%, 1 hr): 31.17 ± .91 mmHg
- Intraocular pressure ([1]; PGE1 0.01%, 2 hr): 15.33 ± .56 mmHg
- Intraocular pressure ([1]; PGE1 0.01%, 4 hr): 16.33 ± 1.17 mmHg
- Intraocular pressure ([1]; PGE1 0.01%, 6 hr): 19.00 ± 1.03 mmHg

Structure (SMILES): COC(=O)CCC=C=CC[C@H]1C(=O)C[C@@H](C)[C@@H]1/C=C/[C@@H](O)COc1ccccc1 [Compound 1, methyl 9-oxo-11α-methyl-15α-hydroxy-16-phenoxy-17,18,19,20-tetranorprosta-4,5,13(E)-trienoate]
- intraocular pressure (effect in words) ([1]; 0.01% solution, right (treated) eyes of the experimental group): decreased significantly
- Intraocular pressure ([1]; Compound 1 0.02%, 0 hr (reading before treatment)): 21.63 ± .71 mmHg
- Intraocular pressure ([1]; Compound 1 0.02%, 1/2 hr): 18.13 ± .44 mmHg
- Intraocular pressure ([1]; Compound 1 0.02%, 1 hr): 17.25 ± .59 mmHg
- Intraocular pressure ([1]; Compound 1 0.02%, 2 hr): 16.63 ± .78 mmHg
- Intraocular pressure ([1]; Compound 1 0.02%, 4 hr): 18.75 ± .68 mmHg
- Intraocular pressure ([1]; Compound 1 0.2%, 0 hr (reading before treatment)): 23.75 ± .53 mmHg
- Intraocular pressure ([1]; Compound 1 0.2%, 1/2 hr): 19.25 ± .49 mmHg
- Intraocular pressure ([1]; Compound 1 0.2%, 1 hr): 18.88 ± .64 mmHg
- Intraocular pressure ([1]; Compound 1 0.2%, 2 hr): 18.75 ± .45 mmHg
- Intraocular pressure ([1]; Compound 1 0.2%, 4 hr): 19.88 ± .35 mmHg
- ocular toxicity [3]: No ocular toxicity occurred
- ocular toxicity [4]: No ocular toxicity occurred
